Legend:
[1] = system: synaptic GABAA receptors; assay: Miniature inhibitory postsynaptic currents (mIPSCs) in hippocampal neurons; assay type: cell-based, rat
[2] = target: T1, recombinant Flag-tagged KCC2 (Rattus norvegicus, UniProt Q63633); assay: Quantum dot-based single particle tracking of KCC2 membrane lateral diffusion; assay type: cell-based; conditions: vs DMSO
T1 construct: expressed in transfected cells; host or cells: primary rat hippocampal neurons, transfected at DIV 13-14 with Transfectin
T1 sequence (Q63633 1-1116 isoform Q63633-2): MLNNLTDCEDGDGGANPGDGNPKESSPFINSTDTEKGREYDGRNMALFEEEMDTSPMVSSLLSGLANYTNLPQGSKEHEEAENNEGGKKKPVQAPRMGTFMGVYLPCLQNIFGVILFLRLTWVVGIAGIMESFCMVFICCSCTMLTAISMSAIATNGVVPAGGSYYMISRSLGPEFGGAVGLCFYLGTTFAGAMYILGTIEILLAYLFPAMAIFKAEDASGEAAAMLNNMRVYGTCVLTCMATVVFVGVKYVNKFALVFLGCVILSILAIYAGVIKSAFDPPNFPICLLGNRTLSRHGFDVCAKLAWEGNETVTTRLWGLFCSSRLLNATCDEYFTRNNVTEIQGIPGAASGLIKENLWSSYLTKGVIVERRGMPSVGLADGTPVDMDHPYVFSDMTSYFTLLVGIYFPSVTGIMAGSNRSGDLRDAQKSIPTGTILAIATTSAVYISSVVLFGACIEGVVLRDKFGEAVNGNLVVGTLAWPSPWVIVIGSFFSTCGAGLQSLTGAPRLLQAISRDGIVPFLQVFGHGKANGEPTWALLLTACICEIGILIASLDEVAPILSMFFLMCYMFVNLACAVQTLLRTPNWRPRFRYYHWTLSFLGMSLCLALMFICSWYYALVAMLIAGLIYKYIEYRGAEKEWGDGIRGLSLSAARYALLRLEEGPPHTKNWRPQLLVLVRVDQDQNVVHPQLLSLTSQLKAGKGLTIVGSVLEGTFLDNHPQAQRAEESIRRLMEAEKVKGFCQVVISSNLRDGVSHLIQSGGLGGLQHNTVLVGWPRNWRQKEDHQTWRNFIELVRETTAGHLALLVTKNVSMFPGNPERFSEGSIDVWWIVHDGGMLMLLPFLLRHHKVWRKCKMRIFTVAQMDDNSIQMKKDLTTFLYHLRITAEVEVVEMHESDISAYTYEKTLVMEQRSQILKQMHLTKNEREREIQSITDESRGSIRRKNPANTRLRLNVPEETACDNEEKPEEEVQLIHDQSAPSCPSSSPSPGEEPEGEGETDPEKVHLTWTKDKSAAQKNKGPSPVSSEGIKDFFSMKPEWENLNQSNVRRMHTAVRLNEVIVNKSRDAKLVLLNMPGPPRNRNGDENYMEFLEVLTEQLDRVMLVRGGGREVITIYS
Method: For all experiments on hippocampal cultures, neurons were pre-incubated for 2 hours with either DMSO, PCPZ or CLP257 in a CO2 incubator set at 37° C. Drugs were added directly to the culture medium. For electrophysiology experiments, neurons were also recorded in presence of these drugs in the bath. For biochemistry experiments on rat hippocampo-cortical slices, slices were incubated with either DMSO (vehicle), CLP257, PCPZ, WNK463 or sodium orthovanadate for 2 hours in interface chambers set at 37° C. For human tissue experiments, slices were pre-incubated with either DMSO, CLP257 or PCPZ for 2 hours in interface chambers set at 37° C. and then also recorded in presence of these compounds.
For single-particle-tracking experiments, a previously described KCC2-Flag construct was used. […] All constructs were sequenced by Beckman Coulter Genomics (Hope End, Takeley, U.K). Neuronal transfections were performed at DIV 13-14 using Transfectin (BioRad), according to manufacturer's instructions (DNA:transfectin ratio 1 μg:3 μl), with 1-1.5 μg of plasmid DNA per 20 mm well. Experiments were performed 7-10 days post-transfection.
Neurons were stained as previously described. Briefly, cells were incubated for 6 min at 37° C. with a mouse anti-Flag antibody (mouse, 1:300, Sigma-Aldrich), washed and incubated for 6 min at 37° C. with a biotinylated Fab goat anti-mouse antibody (1:300; Jackson Immuno Research) in imaging medium. After washes, cells were incubated for 1 min with streptavidin-coated quantum dots (QDs) emitting at 655 nm (1 nM; Invitrogen) supplemented with PBS ([…]; Invitrogen) and 10% Casein (v/v) (Sigma).
Cells were imaged using an Olympus IX71 inverted microscope equipped with a 60× objective (NA 1.42; Olympus) and a 120 W Mercury lamp (X-Cite 120Q, Lumen Dynamics). QD real time recordings (integration time of 30 ms over 1200 consecutive frames) were acquired with an ImagEM EMCCD camera and MetaView software (Meta Imaging 7.7). Cells were imaged within 45 min following appropriate drugs pre-incubation.
QD tracking and trajectory reconstruction were performed with homemade Matlab routines, as described. For each imaged neuron, one or two dendritic subregions were quantified. Mean square displacement (MSD) over time plots were calculated as described and diffusion coefficients (D) were calculated by fitting the first four points without origin of the MSD vs. time curves with the equation: MSD(nτ)=4Dnτ+b, where b is a constant reflecting the spot localization accuracy. The explored area of each trajectory was defined as the MSD value of the trajectory at two different time intervals of at 0.42 and 0.45 s.

[3] = target: T2, recombinant human OSR1 (Homo sapiens, UniProt O95747); assay: Radiometric kinase profiling assay; assay type: biochemical; conditions: 70 μM ATP
T2 construct: purchased Eurofins Discovery (KinaseProfiler, contractor)
T2 sequence (O95747 whole entry): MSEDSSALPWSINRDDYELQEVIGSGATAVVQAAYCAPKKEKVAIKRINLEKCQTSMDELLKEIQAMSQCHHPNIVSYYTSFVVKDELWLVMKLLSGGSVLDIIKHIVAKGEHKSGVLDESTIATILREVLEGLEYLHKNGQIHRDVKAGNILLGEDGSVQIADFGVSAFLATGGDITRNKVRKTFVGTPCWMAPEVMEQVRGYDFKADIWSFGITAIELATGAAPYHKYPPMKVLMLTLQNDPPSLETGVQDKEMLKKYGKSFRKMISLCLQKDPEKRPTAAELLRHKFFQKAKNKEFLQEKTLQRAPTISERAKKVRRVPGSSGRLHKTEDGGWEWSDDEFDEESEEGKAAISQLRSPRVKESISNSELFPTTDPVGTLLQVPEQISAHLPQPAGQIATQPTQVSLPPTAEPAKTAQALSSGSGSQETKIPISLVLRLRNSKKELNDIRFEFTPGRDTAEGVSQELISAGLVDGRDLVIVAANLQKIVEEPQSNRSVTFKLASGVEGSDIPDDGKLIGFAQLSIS
Method: (§1) Kinase activity profiles (data not shown) were performed using radiometric assays to measure kinase catalytic activity for PCPZ concentrations ranging 0.1-500 μM in DMSO or CLP257 concentrations ranging 0.1-1000 μM in DMSO, in the presence of 70 μM ATP. Equimolar DMSO concentrations were used as control. Additional information on the kinase profiler assay can be obtained from the contractor's website. (https://www.eurofinsdiscoveryservices.com/cms/cms-content/services/in-vitro-assays/kinases/kinase-profiler).

[4] = target: T3, recombinant human STK39 (SPAK) (Homo sapiens, UniProt Q9UEW8); assay: Radiometric kinase profiling assay; assay type: biochemical; conditions: 70 μM ATP
T3 construct: purchased Eurofins Discovery (KinaseProfiler, contractor)
Method: as §1

[5] = target: T4, recombinant human WNK1 (Homo sapiens, UniProt Q9H4A3); assay: Radiometric kinase profiling assay; assay type: biochemical; conditions: 70 μM ATP
T4 construct: purchased Eurofins Discovery (KinaseProfiler, contractor)
T4 sequence (Q9H4A3 whole entry): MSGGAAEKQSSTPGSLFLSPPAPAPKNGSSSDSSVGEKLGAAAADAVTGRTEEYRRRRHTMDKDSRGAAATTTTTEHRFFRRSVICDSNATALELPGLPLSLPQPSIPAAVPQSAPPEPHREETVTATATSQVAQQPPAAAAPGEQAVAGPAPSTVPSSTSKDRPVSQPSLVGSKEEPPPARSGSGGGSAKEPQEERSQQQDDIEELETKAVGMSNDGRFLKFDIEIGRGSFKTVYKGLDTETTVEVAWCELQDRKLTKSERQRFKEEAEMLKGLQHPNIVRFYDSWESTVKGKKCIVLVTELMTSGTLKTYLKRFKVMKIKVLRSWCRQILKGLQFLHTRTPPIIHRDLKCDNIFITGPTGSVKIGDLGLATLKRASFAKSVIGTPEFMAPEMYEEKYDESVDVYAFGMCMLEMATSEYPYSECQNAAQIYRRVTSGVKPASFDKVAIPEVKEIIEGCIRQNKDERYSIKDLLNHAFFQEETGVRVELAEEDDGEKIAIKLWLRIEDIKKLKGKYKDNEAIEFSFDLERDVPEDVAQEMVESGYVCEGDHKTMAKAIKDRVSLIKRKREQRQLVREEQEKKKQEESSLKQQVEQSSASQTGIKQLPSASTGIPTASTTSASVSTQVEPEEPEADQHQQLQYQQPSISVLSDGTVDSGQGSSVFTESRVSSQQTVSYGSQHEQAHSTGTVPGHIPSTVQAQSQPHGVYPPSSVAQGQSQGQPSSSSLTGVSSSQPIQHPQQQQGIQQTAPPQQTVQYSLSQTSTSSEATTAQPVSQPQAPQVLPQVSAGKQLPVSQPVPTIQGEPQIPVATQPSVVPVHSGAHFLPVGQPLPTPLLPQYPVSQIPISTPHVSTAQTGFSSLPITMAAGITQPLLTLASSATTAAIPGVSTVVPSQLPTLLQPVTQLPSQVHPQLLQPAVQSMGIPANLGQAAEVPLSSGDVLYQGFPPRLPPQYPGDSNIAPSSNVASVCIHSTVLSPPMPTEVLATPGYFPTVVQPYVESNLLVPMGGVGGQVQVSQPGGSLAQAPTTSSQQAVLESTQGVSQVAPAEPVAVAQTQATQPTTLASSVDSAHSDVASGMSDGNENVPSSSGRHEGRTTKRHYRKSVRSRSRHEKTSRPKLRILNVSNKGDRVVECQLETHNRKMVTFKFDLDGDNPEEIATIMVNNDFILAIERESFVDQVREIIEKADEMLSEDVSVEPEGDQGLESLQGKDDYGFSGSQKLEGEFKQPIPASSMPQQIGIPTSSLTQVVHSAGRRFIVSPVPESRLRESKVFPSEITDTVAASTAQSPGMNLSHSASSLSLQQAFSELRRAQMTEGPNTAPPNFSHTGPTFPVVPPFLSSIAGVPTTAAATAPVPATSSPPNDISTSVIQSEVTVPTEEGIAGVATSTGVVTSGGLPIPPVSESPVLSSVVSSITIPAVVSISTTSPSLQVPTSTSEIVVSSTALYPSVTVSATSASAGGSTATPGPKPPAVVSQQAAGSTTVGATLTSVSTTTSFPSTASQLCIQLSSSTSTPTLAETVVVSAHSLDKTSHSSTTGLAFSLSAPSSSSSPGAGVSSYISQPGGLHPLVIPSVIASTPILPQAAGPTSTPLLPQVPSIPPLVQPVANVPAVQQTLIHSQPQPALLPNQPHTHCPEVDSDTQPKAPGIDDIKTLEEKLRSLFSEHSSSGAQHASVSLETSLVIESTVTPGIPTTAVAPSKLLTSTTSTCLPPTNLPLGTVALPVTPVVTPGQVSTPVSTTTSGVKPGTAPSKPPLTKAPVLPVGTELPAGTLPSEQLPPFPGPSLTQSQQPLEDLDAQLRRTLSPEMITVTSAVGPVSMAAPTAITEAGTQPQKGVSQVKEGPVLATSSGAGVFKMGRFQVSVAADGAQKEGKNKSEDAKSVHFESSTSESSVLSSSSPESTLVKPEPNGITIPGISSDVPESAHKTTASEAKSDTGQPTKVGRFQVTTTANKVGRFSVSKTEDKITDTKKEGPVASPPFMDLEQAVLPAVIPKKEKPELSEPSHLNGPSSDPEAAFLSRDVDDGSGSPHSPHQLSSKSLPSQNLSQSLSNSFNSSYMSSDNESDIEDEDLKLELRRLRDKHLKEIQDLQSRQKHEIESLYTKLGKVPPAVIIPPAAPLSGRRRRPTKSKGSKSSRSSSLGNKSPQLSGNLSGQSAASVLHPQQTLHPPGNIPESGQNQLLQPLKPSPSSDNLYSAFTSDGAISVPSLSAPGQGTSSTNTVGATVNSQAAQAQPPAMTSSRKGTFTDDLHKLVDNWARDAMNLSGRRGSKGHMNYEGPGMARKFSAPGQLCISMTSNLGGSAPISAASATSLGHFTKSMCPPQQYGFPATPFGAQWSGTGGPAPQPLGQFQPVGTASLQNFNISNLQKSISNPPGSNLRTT
Method: as §1

[6] = target: T5, recombinant human WNK3 (Homo sapiens, UniProt Q9BYP7); assay: Radiometric kinase profiling assay; assay type: biochemical; conditions: 70 μM ATP
T5 construct: purchased Eurofins Discovery (KinaseProfiler, contractor)
T5 sequence (Q9BYP7 whole entry): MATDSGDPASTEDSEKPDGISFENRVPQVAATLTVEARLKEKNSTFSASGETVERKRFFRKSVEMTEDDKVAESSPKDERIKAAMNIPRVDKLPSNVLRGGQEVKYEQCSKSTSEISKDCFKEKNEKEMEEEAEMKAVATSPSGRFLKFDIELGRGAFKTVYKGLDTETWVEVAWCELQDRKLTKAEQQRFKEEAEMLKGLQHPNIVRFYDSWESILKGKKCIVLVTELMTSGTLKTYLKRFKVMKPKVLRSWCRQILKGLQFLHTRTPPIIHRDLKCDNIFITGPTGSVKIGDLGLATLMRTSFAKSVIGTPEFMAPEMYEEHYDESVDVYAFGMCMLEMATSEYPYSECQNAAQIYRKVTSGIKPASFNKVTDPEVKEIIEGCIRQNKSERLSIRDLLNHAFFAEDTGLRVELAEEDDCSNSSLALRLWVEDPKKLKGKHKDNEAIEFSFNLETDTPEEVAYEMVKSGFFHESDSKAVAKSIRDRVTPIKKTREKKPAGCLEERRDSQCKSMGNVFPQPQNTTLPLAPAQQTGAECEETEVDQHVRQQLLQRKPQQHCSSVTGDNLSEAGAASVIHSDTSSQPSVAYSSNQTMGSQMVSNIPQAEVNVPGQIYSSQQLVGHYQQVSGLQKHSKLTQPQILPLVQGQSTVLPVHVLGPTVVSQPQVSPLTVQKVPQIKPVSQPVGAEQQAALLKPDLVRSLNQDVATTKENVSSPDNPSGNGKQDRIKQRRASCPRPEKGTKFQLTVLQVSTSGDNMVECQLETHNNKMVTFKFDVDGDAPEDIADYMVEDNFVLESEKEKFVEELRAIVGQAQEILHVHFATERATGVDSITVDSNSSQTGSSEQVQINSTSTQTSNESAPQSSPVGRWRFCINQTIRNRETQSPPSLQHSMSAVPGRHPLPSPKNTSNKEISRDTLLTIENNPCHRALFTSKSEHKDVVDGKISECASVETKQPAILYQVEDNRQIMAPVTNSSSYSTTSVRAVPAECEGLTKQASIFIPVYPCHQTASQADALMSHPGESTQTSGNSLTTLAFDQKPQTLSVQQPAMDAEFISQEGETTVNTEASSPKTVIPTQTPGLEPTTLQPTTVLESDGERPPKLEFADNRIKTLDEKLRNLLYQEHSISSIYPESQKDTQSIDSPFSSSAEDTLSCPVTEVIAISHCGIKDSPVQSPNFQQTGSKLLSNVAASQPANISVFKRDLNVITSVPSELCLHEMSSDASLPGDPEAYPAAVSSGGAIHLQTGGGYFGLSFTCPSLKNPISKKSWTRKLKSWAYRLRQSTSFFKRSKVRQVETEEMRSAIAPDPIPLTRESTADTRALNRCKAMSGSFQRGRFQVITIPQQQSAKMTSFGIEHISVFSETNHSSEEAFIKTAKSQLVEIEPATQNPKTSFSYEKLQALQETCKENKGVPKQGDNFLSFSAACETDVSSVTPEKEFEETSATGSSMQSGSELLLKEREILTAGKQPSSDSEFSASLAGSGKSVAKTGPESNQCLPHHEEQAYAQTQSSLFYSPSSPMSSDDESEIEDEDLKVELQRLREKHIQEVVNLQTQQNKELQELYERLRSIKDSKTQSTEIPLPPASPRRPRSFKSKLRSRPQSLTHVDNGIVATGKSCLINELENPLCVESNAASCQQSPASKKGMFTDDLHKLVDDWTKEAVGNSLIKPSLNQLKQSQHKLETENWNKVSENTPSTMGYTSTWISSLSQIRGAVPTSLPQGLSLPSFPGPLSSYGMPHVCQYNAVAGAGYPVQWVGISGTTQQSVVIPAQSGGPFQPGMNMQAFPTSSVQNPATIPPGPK
Method: as §1

Compound | mIPSCs decay time constant ([1]; 100 μM CLP257, before drug 12.36±0.75) [ms] | mIPSCs amplitude ([1]; 100 μM CLP257, before drug 42.32±3.40) [pA] | change of KCC2 diffusion coefficient, extrasynaptic ([2]; 100 μM CLP257, 2 h) [%] | change of KCC2 diffusion coefficient, synaptic ([2]; 100 μM CLP257, 2 h) | change of KCC2 explored area, extrasynaptic ([2]; 100 μM CLP257, 2 h) [%] | change of KCC2 explored area, synaptic ([2]; 100 μM CLP257, 2 h) | inhibition of OSR1 kinase activity ([3]; CLP257 0.1-1000 μM) | inhibition of SPAK kinase activity ([4]; CLP257 0.1-1000 μM) | inhibition of WNK1 kinase activity ([5]; CLP257 0.1-1000 μM) | inhibition of WNK3 kinase activity ([6]; CLP257 0.1-1000 μM) | mIPSCs decay time constant ([1]; 10 μM PCPZ, before drug 10.66±0.80) [ms] | mIPSCs amplitude ([1]; 10 μM PCPZ, before drug 42.49±2.54) [pA] | change of KCC2 diffusion coefficient, extrasynaptic ([2]; 10 μM PCPZ, 2 h) [%] | change of KCC2 diffusion coefficient, synaptic ([2]; 10 μM PCPZ, 2 h) [%] | change of KCC2 explored area, extrasynaptic ([2]; 10 μM PCPZ, 2 h) [%] | change of KCC2 explored area, synaptic ([2]; 10 μM PCPZ, 2 h) [%] | inhibition of OSR1 kinase activity ([3]; PCPZ 0.1-500 μM) | inhibition of SPAK kinase activity ([4]; PCPZ 0.1-500 μM) | inhibition of WNK1 kinase activity ([5]; PCPZ 0.1-500 μM) | inhibition of WNK3 kinase activity ([6]; PCPZ 0.1-500 μM)
O=C1N=C(N2CCCCN2)S/C1=C\c1ccc(F)cc1O [CLP257, (5Z)-5-[(4-Fluoro-2-hydroxyphenyl)methylene]-2-(tetrahydro-1-(2H)-pyridazinyl)-4(5H)-thiazolone] | 12.53 ± 1.01 | 43.77±2.86 | −20.74±4.85 | +9.39±11.21% | −25.14±2.73 | +4.93±19.40% | no direct inhibitory effect | no direct inhibitory effect | no direct inhibitory effect | no direct inhibitory effect |  |  |  |  |  |  |  |  |  | 
CN1CCN(CCCN2c3ccccc3Sc3ccc(Cl)cc32)CC1 [PCPZ, prochlorperazine] |  |  |  |  |  |  |  |  |  |  | 10.17 ± 0.71 | 42.92±2.55 | −36.54±14.91 | −26.22±14.00 | −39.70±17.18 | −30.632±25.44 | no direct inhibitory effect | no direct inhibitory effect | no direct inhibitory effect | no direct inhibitory effect
